In patent publication US20100189683A1, “Pulsatile Dosing of Gossypol for Treatment of Disease” (Ascenta Therapeutics, Inc., priority 2008, published 2010):
Counter-ions that a name gives are not always drawn.

Tests used:
[1] = test system: patients with metastatic prostate cancer, hormone-refractory; assay: CS-202 Phase I-II, Cohort A (hormone-refractory patients): PSA and tumor response; assay type: in vivo, human; settings: with docetaxel and prednisone
Excerpt: See N. Engl. J. Med. 351:1502-1512 (2004) for further details of TAX 327 clinical study.
(“D”=docetaxel; “P”=prednisone).

[2] = test system: patients with histologically confirmed metastatic prostate cancer; assay: CS-202 Phase I data from 9 patients (toxicity); assay type: in vivo, human; settings: 40-60 mg BID days 1-3 every 21 days with docetaxel 75 mg/m2 and prednisone
[3] = test system: men with docetaxel-refractory castration-resistant prostate cancer; assay: CS-202 Cohort B: AT-101 added to docetaxel/prednisone in docetaxel-refractory CRPC
Experimental: An open-label non-randomized Phase I-II clinical trial (labeled CS-202) is being carried out on patients with histologically confirmed metastatic prostate cancer. Briefly, patients are divided in into two cohorts: Cohort A-Patients with rising PSA level on hormonal therapy, i.e., hormone-refractory patients, and Cohort B-Patients with PSA or disease progression on docetaxel (taxotere), i.e., docetaxel-refractory patients. All patients were treated with 40-60 mg (−)-gossypol acetic acid co-crystal 40-60 mg BID days 1-3, every 21 days, 75 mg/m2 docetaxel q 21 days and prednisone, daily per label.
Treatment regimen in this study is: oral AT-101 40 mg BID×3 days q 3 weeks, IV taxotere 75 mg/m^2 q 3 weeks, and oral prednisone 5 mg BID daily.
A clinical study of docetaxel and prednisone in combination with AT-101 using a pulse administration schedule in men with docetaxel-refractory castration-resistant prostate cancer (CRPC) is ongoing (see Example 4, cohort B patients). A strict definition of docetaxel refractoriness which requires that the patient have progression as measured by PSA levels, RECIST, or bone scan while receiving docetaxel (D) and prednisone (P) is being used in the study. RECIST criteria are widely-used and well known in the art. The intervention is to continue docetaxel and prednisone treatment and to add AT-101.

[4] = test system: men with treatment naïve CRPC; assay: Single agent AT-101 administration (20-30 mg daily); assay type: in vivo, human; settings: single agent AT-101 at 20-30 mg daily
Excerpt: Better compliance with a 3-day dosing regimen, compared to daily for 21 of 28 days, for example, is expected.

[5] = test system: patients with advanced cancer; assay: Pulsatile dose administration of AT-101 b.i.d. times 3 days every other week, clinical efficacy and case summaries; assay type: in vivo, human
Excerpt: Following pulsatile dose administration of (−)-gossypol to patients with advanced cancer, clinical efficacy (e.g., patients having stable disease for 60 days or more) was monitored. […] The case summaries are as follows:
Patient 1 is a person diagnosed with non-small cell lung cancer (NSCLC) by bronchial biopsy in March 2005. The patient initially received the Carboplatin/paclitaxel with radiation therapy as adjuvant therapy from April to May 2005. Disease progression was diagnosed in September 2005 and treatment with erlotinib was begun in October 2005. The patient had progressive disease in January 2006. The patient started on treatment with AT-101 40 mg b.i.d. times 3 days every other week in March 2006. When the patient started on treatment with AT-101 they had extensive lymph node disease that remained stable on study drug for approximately 939 days (2.6 years). The patient's baseline signs and symptoms included: anemia, fatigue and productive cough. Their medical history includes: history of smoking, COPD, BPH, hypercholesterolemia, hypophosphatemia, RT induced esophagitis.
Patient 2 is a person diagnosed with a neuroendocrine carcinoma by a CT guided biopsy of an abdominal mass in May 2002. The patient was initially treated with interferon alpha from September 2002 to March 2003 but the disease progressed. Subsequently, the patient was treated with an investigational VEGFR2 targeted agent, SUO11248, from August 2003 to March 2004 until progression. The patient next received interferon plus capecitabine from August 2004 to June 2005 until disease progression in July 2005. Next, the patient was treated with […] doxirubicin from July 2005 to January 2006 until disease progression in February 2006. They started on the AT-101 treatment in February 2006 and received AT-101 30 mg b.i.d. times 3 days every other week. At the start of therapy, disease was present in the liver, abdomen, and pelvis and notable for numerous mesenteric masses. These remained stable on study for 18 cycles (534 days). The patient came off study due to increased weight loss and the investigator decision to send the patient for surgery for tumor debulking. The patient's baseline signs and symptoms included tumor pain, fatigue and weight loss. The patient's medical history included: GERD, HTN, congenital pulmonary cysts, anemia, and diarrhea.

[6] = test system: A549 NSCLC xenograph model; assay: In vivo efficacy in the A549 NSCLC xenograft model; set-up: species or system nude mice; settings: intermittent dosing 60 mg/kg po days 1-3 and 15-17, in combination with taxotere 30 mg/kg iv single dose
Experimental: The in vivo efficacy of (−)-gossypol acetic acid co-crystals alone or in combination with taxotere (TXT) in the A549 NSCLC xenograph model is shown in FIGS. 2 and 3. About 5 million cells of A549 were inoculated into nude mice, 8 mice per dosing group. In one experiment, (−)-gossypol acetic acid co-crystals were administered at 15 mg/kg, oral dosing (po), daily for 21 days, either alone or in combination with taxotere at 8 mg/kg, iv, once a week for three weeks (FIG. 2). In another experiment, (−)-gossypol acetic acid co-crystals were administered at 60 mg/kg, po, daily for three days per week (day 1-3/week) every two weeks (days 1-3, and then days 15-17), either alone or in combination with taxotere at 30 mg/kg, iv, single dose only, once every three weeks (FIG. 3).

[7] = target: Bcl-XL (Homo sapiens, UniProt Q07817); settings: U.S. Patent Application No. 2003/0008924; cited from earlier work
[8] = target: Mcl-1 (Homo sapiens, UniProt Q07820); settings: U.S. Patent Application No. 2003/0008924; cited from earlier work
[9] = target: Bcl-2 (Homo sapiens, UniProt P10415); settings: U.S. Patent Application No. 2003/0008924; cited from earlier work
[10] = test system: all-corners with relapsed SCLC; settings: oral versus i.v. topotecan HCl; cited from earlier work
[11] = 20 patients with measurable disease by RECIST
[12] = AT-101 added to continued docetaxel and prednisone
[13] = first 11 patients of Cohort B, with docetaxel and prednisone
[14] = Patient 1, NSCLC, 40 mg b.i.d. times 3 days every other week
[15] = Patient 2, 30 mg b.i.d. times 3 days every other week

Chain of Bcl-2 (P10415 whole entry): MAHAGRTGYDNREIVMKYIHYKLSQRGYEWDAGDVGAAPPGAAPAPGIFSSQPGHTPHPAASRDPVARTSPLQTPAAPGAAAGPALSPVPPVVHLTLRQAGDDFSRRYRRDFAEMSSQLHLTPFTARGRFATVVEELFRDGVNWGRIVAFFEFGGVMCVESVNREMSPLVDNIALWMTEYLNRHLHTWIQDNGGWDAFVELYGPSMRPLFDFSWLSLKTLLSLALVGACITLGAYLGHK
Chain of Mcl-1 (Q07820 whole entry): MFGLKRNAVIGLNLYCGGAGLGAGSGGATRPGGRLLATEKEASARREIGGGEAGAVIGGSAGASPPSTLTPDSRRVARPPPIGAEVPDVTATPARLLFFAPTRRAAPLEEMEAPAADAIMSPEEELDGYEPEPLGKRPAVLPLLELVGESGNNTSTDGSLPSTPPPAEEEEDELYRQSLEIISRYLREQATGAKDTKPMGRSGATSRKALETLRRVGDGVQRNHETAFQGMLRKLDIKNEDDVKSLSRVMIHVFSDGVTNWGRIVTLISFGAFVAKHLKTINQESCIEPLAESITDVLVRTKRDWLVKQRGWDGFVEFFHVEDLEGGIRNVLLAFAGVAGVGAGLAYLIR
Chain of Bcl-XL (Q07817 whole entry): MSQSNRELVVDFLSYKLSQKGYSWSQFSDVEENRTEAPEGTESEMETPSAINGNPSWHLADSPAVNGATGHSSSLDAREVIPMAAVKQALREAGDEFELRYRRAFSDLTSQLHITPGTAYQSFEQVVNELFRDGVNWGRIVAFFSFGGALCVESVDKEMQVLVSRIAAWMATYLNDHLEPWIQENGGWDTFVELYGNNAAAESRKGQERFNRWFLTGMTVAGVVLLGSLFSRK

## Cc1cc2c(C(C)C)c(O)c(O)c(C=O)c2c(O)c1-c1c(C)cc2c(C(C)C)c(O)c(O)c(C=O)c2c1O [AT-101, (−)-gossypol acetic acid co-crystal]
[1]; Cohort A
  PSA response versus time: PSA reductions occur early in the treatment and are long lasting
[1]; first 20 patients of Cohort A
  PSA response: high rate of PSA response
  Patients refractory at the onset of treatment: only one patient out of 20 was refractory
[2]
  Docetaxel hematological toxicity: no increase in docetaxel hematological toxicity
  Dose-limiting toxicities: no dose-limiting toxicities
  Severe gastrointestinal toxicity: no severe gastrointestinal toxicity
[3]; [11]
  Complete response (CR): one complete response (CR)
  PRs (RECIST): 4
[3]; 20 patients with measurable disease by RECIST criteria at baseline
  Patients with major tumor shrinkage based on radiographic assessments: 6/20
[3]; [12]
  Patients who have achieved a PSA partial response (PR) (50% or greater reduction): 7/35
  Patients with some PSA reduction: 20/35
[3]; added to a taxotere/prednisone regimen, patients of Cohort B
  PSA response kinetics: abrupt reversal of the PSA response (from rising to falling)
[3]; another single patient with measurable disease
  Reduction in tumor volume: 29%
[3]; [13]
  Patients having a 30+% decline in PSA response: 4 patients
  Patients having a 50+% decline in PSA response: 2 patients
  Patients with the desired PSA response: 6 patients
[3]; human, in vivo
  Peak and AUC concentrations: higher peak and AUC concentrations
[3]; of 35 patients
  Patients on-study for 4 months or longer: Eight out of the 35 patients
  Patients on-study for 6 months or longer: 3 patients
[3]; patients meeting the strict definition of refractoriness
  D/P refractory patients who have had a PSA PR: 4/32
[3]; pulsatile dose administration
  Tolerability: well tolerated
[3]; pulsatile dose administration, some patients with CRPC
  D/P chemoresistance: overcomes D/P chemoresistance in some patients with CRPC
[3]; taxotere-refractory patients (37 eligible; 21 with measurable disease), AT-101 40 mg BID×3 days q 3 weeks added to taxotere/prednisone
  Responses, time-to-event plot: multiple durable responses
[3]; taxotere-refractory patients, AT-101 40 mg BID×3 days q 3 weeks added to taxotere/prednisone
  RECIST responses: RECIST partial responses are observed
[4]
  RECIST SD (stable disease): no RECIST SD (stable disease)
[4]; compared with pulsatile dosing with D/P
  PSA PRs: fewer PSA PRs
[5]; [14]
  On-treatment toxicities: grade 2 peripheral neuropathy
  Time disease remained stable on study drug: approximately 939 days
[5]; [15]
  On treatment grade 1 toxicities: general body aches, nausea, flatulence, headache, fatigue, hypomagnesemia, vomiting, hypokalemia and diarrhea
  On treatment grade 2 toxicities: weight loss, nausea, vomiting
[5]; Patient 2, neuroendocrine carcinoma, 30 mg b.i.d. times 3 days every other week, 18 cycles
  Time disease remained stable on study: 534 days
[5]; Patient 2, considered serious, determined to be unrelated to AT-101 treatment
  On treatment grade 3 toxicity: small bowel obstruction
[5]; among 37 patients, b.i.d. times 3 days every other week
  Patients with clinical benefit (prolonged progression free period of more than 1 year): two patients had clinical benefit
[6]
  Tumor volume: effectively reduces tumor volume

## Cc1cc2c(C(C)C)c(O)c(O)c(C=O)c2c(O)c1-c1c(C)cc2c(C(C)C)c(O)c(O)c(C=O)c2c1O [Gossypol, gossypol]
[7]
  Binding to Bcl-XL at the BH3 binding groove: shown to bind
[8]
  Binding to Mcl-1 at the BH3 binding groove: shown to bind
[9]
  Binding to Bcl-2 at the BH3 binding groove: shown to bind

## CC[C@@]1(O)C(=O)OCc2c1cc1n(c2=O)Cc2cc3c(CN(C)C)c(O)ccc3nc2-1 [topotecan HCl, (S)-10-[(dimethylamino)methyl]-4-ethyl-4,9-dihydroxy-1H-pyrano[3′,4′:6,7] indolizino [1,2-b] quinoline-3,14-(4H,12H)-dione monohydrochloride]
[10]
  Median progression free survival (PFS): 13.1 weeks
  ORR: 44%
